Data: patent US7235580B2, “Mitotic kinesin inhibitors” (Merck & Co., Inc., priority 2002, dated 2007)

Biological target: T1, human KSP motor domain (KSP(367H)) (Homo sapiens, UniProt P52732)
T1 construct: were used to amplify the motor domain and the neck linker region; made in house; host or cells: E. coli BL21 (DE3), pRSETa
T1 sequence (P52732 18-359 limits assumed): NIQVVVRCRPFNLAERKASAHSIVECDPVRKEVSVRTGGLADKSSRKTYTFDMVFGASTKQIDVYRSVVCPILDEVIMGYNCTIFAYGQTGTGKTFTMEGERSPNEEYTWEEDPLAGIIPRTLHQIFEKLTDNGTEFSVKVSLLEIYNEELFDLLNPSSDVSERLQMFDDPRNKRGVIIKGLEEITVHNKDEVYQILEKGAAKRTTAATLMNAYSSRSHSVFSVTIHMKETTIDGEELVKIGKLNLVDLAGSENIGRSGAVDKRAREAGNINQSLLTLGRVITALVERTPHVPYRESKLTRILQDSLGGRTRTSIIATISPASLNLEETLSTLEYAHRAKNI
Assay: Kinesin ATPase In Vitro Assay
Format: biochemical
Conditions: kinesin motor domain with microtubules, 1 mM ATP, 23° C.; free phosphate by quinaldine red/ammonium molybdate
From the text: I. Kinesin ATPase In Vitro Assay
Cloning and Expression of Human Poly-histidine Tagged KSP Motor Domain (KSP(367H))
Plasmids for the expression of the human KSP motor domain construct were cloned by PCR using a pBluescript full length human KSP construct (Blangy et al., Cell, vol. 83, pp 1159-1169, 1995) as a template. The N-terminal primer 5′-[…] (SEQ.ID.NO.: 1) and the C-terminal primer 5′-[…] […] (SEQ.ID.NO.: 2) were used to amplify the motor domain and the neck linker region. The PCR products were digested with AseI and XhoI, ligated into the NdeI/XhoI digestion product of pRSETa (Invitrogen) and transformed into E. coli BL21 (DE3).
Cells were grown at 37° C. to an OD600 of 0.5. After cooling the culture to room temperature expression of KSP was induced with 100 μM IPTG and incubation was continued overnight. Cells were pelleted by centrifugation and washed once with ice-cold PBS. Pellets were flash-frozen and stored −80° C.
Cell pellets were thawed on ice and resuspended in lysis buffer (50 mM K-HEPES, pH 8.0, 250 mM KCl, 0.1% Tween, 10 mM imidazole, 0.5 mM Mg-ATP, 1 mM PMSF, 2 mM benzimidine, 1× complete protease inhibitor cocktail (Roche)). Cell suspensions were incubated with 1 mg/ml lysozyme and 5 mM β-mercaptoethanol on ice for 10 minutes, followed by sonication (3×30 sec). All subsequent procedures were performed at 4° C. Lysates were centrifuged at 40,000×g for 40 minutes. Supernatants were diluted and loaded onto an SP Sepharose column (Pharmacia, 5 ml cartridge) in buffer A (50 mM K-HEPES, pH 6.8, 1 mM MgCl2, 1 mM EGTA, 10 μM Mg-ATP, 1 mM DTT) and eluted with a 0 to 750 mM KCl gradient in buffer A. Fractions containing KSP were pooled and incubated with Ni-NTA resin (Qiagen) for one hour. The resin was washed three times with buffer B (Lysis buffer minus PMSP and protease inhibitor cocktail), followed by three 15-minute incubations and washes with buffer B. Finally, the resin was incubated and washed for 15 minutes three times with buffer C (same as buffer B except for pH 6.0) and poured into a column. KSP was eluted with elution buffer (identical to buffer B except for 150 mM KCl and 250 mM imidazole). KSP-containing fractions were pooled, made 10% in sucrose, and stored at −80° C.
Microtubules are prepared from tubulin isolated from bovine brain. Purified tubulin (>97% MAP-free) at 1 mg/ml is polymerized at 37° C. in the presence of 10 μM paclitaxel, 1 mM DTT, 1 mM GTP in BRB80 buffer (80 mM K-PIPES, 1 mM EGTA, 1 mM MgCl2 at pH 6.8). The resulting microtubules are separated from non-polymerized tubulin by ultracentrifugation and removal of the supernatant. The pellet, containing the microtubules, is gently resuspended in 10 μM paclitaxel, 1 mM DTT, 50 μg/ml ampicillin, and 5 μg/ml chloramphenicol in BRB80.
The kinesin motor domain is incubated with microtubules, 1 mM ATP (1:1 MgCl2: Na-ATP), and compound at 23° C. in buffer containing 80 mM K-HEPES (pH 7.0), 1 mM EGTA, 1 mM DTT, 1 mM MgCl2, and 50 mM KCl. The reaction is terminated by a 2-10 fold dilution with a final buffer composition of 80 mM HEPES and 50 mM EDTA. Free phosphate from the ATP hydrolysis reaction is measured via a quinaldine red/ammonium molybdate assay by adding 150 μl of quench C buffer containing a 2:1 ratio of quench A:quench B. Quench A contains 0.1 mg/ml quinaldine red and 0.14% polyvinyl alcohol; quench B contains 12.3 mM ammonium molybdate tetrahydrate in 1.15 M sulfuric acid. The reaction is incubated for 10 minutes at 23° C., and the absorbance of the phospho-molybdate complex is measured at 540 nm.

| IC50 [µM] | Compound |
| --- | --- |
| ≤ 50 | COC(=O)NCCCC1(c2ccccc2)C=C(c2cc(Cl)ccc2F)CN1C(=O)N(C)C (stereo not drawn) [Compound 22-1, methyl 3-{4-(5-chloro-2-fluorophenyl)-1-[(dimethylamino)carbonyl]-2-phenyl-2,5-dihydro-1H-pyrrol-2-yl}propylcarbamate] |
| ≤ 50 | CN(C)C(=O)N1CC(c2cc(F)ccc2F)=CC1(COCCN)c1ccccc1 (stereo not drawn) [Compound 2-3, 2-[(2-Aminoethoxy)methyl]-4-(2,5-difluorophenyl)-N,N-dimethyl-2-phenyl-2,5-dihydro-1H-pyrrole-1-carboxamide] |
| ≤ 50 | CN(C)C(=O)N1CC(c2cc(F)ccc2F)=CC1(CCCO)c1ccccc1 (stereo not drawn) [Compound 4-1a, 2-(3-Hydroxypropyl)-4-(2,5-difluorophenyl)-N,N-dimethyl-2-phenyl-2,5-dihydro-1H-pyrrole-1-carboxamide] |
